# Source: US20210267948A1, “TREATMENT OF CANCER” (CITY OF HOPE, priority 2017, published 2021)
# Tests used:
# [1] = test system: multiple human cancer cell lines; assay: In vitro activity in multiple human cancer cell lines; format: cell-based; conditions: in most cases
# HCC1937+BRCA1 = assay: Cytotoxicity assay, HCC1937+BRCA1; format: cell-based, human; conditions: 10 μM, 72 h
# Procedure: All cell lines were acquired from the American Type Culture Collection (Manassas, Va., USA). Cells were maintained in RPMI 1640 medium (Mediatech) with 10% fetal bovine serum, 2 mM glutamine, and 100 U of penicillin and 100 μg of streptomycin per ml of medium (Sigma) at 37° C. in 5% CO2. To isolate HCC1937+BRCA1 cells, parental HCC1937 cells were transfected with pcDNA3.1 plasmid expressing full-length BRCA1 cDNA. Stable transfectant clones were selected and used for drug sensitivity assays. For stable transfection, cells at 30-40% confluence were incubated overnight with […] of plasmid DNA, using FUGENE® 6 transfectin reagent (Roche Molecular Biochemical, Monza, Italy) according to the manufacturer's instructions. Cells were then selected in puromycin (1 μg/ml) (Invitrogen Life Technologies, La Jolla, Calif., USA). After 20 to 30 days, viable puromycin-resistant colonies from HCC1937 transfections were expanded and screened. The clones that stably expressed puromycin and retained growth potential were assayed for BRCA1 expression by Western blot analysis. The restoration of BRCA1 expression in the puromycin-resistant cDNA/transfectant cells was evaluated by Western blot analysis.
# The MTT cytotoxicity assay was performed by incubating with MTT and monitoring the MTT formazan formed by viable cells with a microplate reader at a wavelength of 560 nm; the survival ratio was determined using the formula: (Atest−Ablank)/(Acontrol−Ablank)×100%. The cytotoxicity was determined in 96-well plates using the semiautomatic fluorescence-based Digital Imaging Microscopy System (DIMSCAN). DIMSCAN uses digital imaging microscopy to quantify viable cells, which selectively accumulate FDA (fluorescein diacetate; Alfa Aesar, Ward Hill, Mass.). DIMSCAN is capable of measuring cytotoxicity over a 4 log dynamic range by quantifying total fluorescence per well (which is proportional to the number of viable cells) after elimination of the background fluorescence by digital thresholding and eosin Y (Mallinckrodt Baker, Center Valley, Pa.) quenching. […]
# MCF-7 p53−/− = assay: DNA damage checkpoint Western blot, MCF-7 p53-/-; format: cell-based, human
# Procedure: FIG. 6. COH29 treatment activates DNA damage checkpoint. The effect of COH29 treatment on DNA damage checkpoint proteins in human breast cancer cells expressing wt p53 (MCF-7) or defective for p53 (MCF-7p53−/−), and in triple-negative breast cancer cells (MDA-MB-468) assessed by Western Blot.
# For subcellular fractionation, cells were trypsinized and washed with cold PBS solution twice. After centrifugation at 1,200 g for 5 min, cells were incubated in buffer (50 mM HEPES, pH 7.5, 150 mM NaCl, 1 mM EDTA) containing 0.2% NONIDET™ P-40 (NP-40), supplemented with protease inhibitors (5 μg/ml each of pepstatin, leupeptin, and aprotinin) and phosphatase inhibitors on ice for 5 min. Following centrifugation at 1,000 g for 5 min, the supernatant was collected (i.e., cytoplasmic fraction) and pellets were washed with the same buffer twice. The washed samples were extracted for 40 min on ice with fractionation buffer containing 0.5% NP-40 for nuclear fraction. All the samples were sonicated and clarified by centrifugation at 16,000 g for 15 min. Protein concentrations of all fractions were determined with Bio-Rad Protein Assay (Bio-Rad Laboratories, Hercules, Calif.). Immunoblotting was performed as described previously (21,22). […] The immunoblots were visualized on film with the West-Q chemi-luminescence kit (GenDEPOT, Barker, Tex.).
# HCC1937 = assay: Microarray gene ontology enrichment, HCC1937; format: cell-based, human; conditions: genes downregulated, HCC1937-COH29 vs HCC1937
# Procedure: FDR values were calculated using the method of Benjamini and Hochberg (28) from the distribution of ANOVA with Linear Contrastp-values. Gene ontology (GO) (29) enrichment analysis was performed within PARTEK® GENOMICS SUITE™, and GO categories were defined significant with a Fisher Exact test p-value<0.05.
# To identify the mechanism through which COH29 preferentially lyses BRCA1-mutant human cancer cells, genome-wide microarray analysis was performed using the AFFYMETRIX® GENECHIP® microarray platform to identify the gene expression profiles and pathways affected by COH29 treatment. The RNA expression profile of COH29 treated HCC1937 breast cancer cells lacking BRCA1 was compared with that of COH29 treated HCC1937+BRCA1 cells. […] For example, DNA ligation involved in DNA repair is more strongly enriched in HCC1937 cells which may relate to the phenotypic effect.
compound,measurement,setting,value
"O=C(Nc1nc(-c2ccc(O)c(O)c2)c(-c2ccccc2)s1)c1ccc(O)c(O)c1 [COH29, N-(4-(3,4-dihydroxyphenyl)-5-phenylthiazol-2-yl)-3,4-dihydroxybenzamide]",IC50,[1],< 10 µM
same,cells survived,HCC1937+BRCA1; HCC1937+BRCA1 transfected with BRCA1 siRNA,53%
same,cells survived,HCC1937+BRCA1; HCC1937+BRCA1 transfected with control siRNA,72%
same,"DNA damage checkpoint proteins (ATM, CHK1, CHK2)",MCF-7 p53−/−,similarly modified
same,γ-H2AX level,MCF-7 p53−/−,increase
same,Genes (n): DNA ligation involved in DNA repair,HCC1937,3
same,Genes (n): DNA repair,HCC1937,17
same,Genes (n): DSB repair,HCC1937,7
same,Genes (n): DSB repair via HR,HCC1937,5
same,Genes (n): DSB repair via NHEJ,HCC1937,2
